Like-named read-outs stand apart in the source and are kept apart here.
Assays:
[1] = molecular target: IN-GCN2 interaction (6xHis-IN / GST-GCN2) (UniProt P04585+Q9P2K8); assay: biochemical; assay type: binding, HIV-1 IN; human GCN2; conditions: for IC50: SAR study, fresh dilutions from powder, at least three independent experiments; for effect on IN-GCN2 interaction in dose-response, in words: dose-response assessment; for IN-GCN2 interaction (%): screen, single dose 100 µM, single replicate, residual AlphaLISA signal normalized to DMSO control
IN-GCN2 interaction (6xHis-IN / GST-GCN2), sequence (Q9P2K8 192-1024, other chains not shown): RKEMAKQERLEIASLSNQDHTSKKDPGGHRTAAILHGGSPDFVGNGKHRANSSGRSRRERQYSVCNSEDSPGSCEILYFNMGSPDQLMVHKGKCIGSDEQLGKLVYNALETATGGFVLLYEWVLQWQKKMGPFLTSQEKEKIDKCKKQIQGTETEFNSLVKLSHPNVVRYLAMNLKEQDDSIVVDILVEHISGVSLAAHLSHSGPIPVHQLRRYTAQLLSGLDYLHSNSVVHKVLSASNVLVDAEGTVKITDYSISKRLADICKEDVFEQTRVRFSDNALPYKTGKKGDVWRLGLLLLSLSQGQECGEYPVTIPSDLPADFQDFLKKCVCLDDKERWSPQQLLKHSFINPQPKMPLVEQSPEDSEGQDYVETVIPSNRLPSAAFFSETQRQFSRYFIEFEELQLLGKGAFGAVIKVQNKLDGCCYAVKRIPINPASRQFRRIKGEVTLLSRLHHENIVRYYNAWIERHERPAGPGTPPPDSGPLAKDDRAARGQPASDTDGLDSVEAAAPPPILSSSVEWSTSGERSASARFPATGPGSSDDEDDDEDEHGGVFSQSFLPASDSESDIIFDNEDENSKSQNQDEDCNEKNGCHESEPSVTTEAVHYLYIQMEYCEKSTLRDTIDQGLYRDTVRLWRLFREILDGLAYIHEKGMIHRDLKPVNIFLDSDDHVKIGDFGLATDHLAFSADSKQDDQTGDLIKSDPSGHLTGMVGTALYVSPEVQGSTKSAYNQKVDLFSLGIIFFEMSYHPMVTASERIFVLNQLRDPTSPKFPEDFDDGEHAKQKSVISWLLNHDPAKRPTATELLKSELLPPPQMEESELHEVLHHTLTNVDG

[2] = Cytotoxicity (CellTiter 96 AQueous); assay type: cell-based; conditions: human; for CC50 at 24 h: P4 MAGI CCR5+ cells
[3] = IC50, inhibition of IN-GCN2 interaction

Structure (SMILES)	IN-GCN2 interaction (%) [1] [%]	further results
COc1cc2c(cc1OC)-c1c(OC)c(OC)cc3c1C(C2)N(C)CC3 (stereo not shown) [Compound 3k]	124.35	IC50 [1, 3]: > 100 µM; effect on IN-GCN2 interaction in dose-response, in words [1]: inactive; CC50 ([2]; 24 h, read-out: CC50): > 5 µM
COc1cc2c3c(c1O)C1(C=CC(=O)C=C1)CC3N(C)CC2 (stereo not shown) [Compound 3l]		IC50 [1, 3]: > 100 µM; CC50 at 24 h ([2]; 24 h, read-out: CC50): > 5 µM
COc1cc2c(cc1OC)c1c(OC)c(OC)cc3c1c1c2sc(=S)n1CC3 [Compound 3a]		IC50 [1, 3]: 24 µM; CC50 at 24 h ([2]; 24 h, read-out: CC50): > 5 µM
CC[C@@]1(O)C[C@H](O[C@H]2C[C@H](N(C)C)[C@H](O[C@H]3C[C@H](O)[C@H](O[C@H]4CCC(=O)[C@H](C)O4)[C@H](C)O3)[C@H](C)O2)c2c(cc3c(c2O)C(=O)c2c(O)cccc2C3=O)[C@H]1C(=O)OC [Compound 1k]	28.46	CC50 ([2]; 24 h, read-out: CC50): 0.114 µM
CN(C)CCCCNc1ccc(NCCCCN(C)C)c2c1C(=O)c1c(O)ccc(O)c1C2=O [Compound 2j]		IC50 ([1]; read-out: IC50, inhibition of IN-GCN2 interaction): 11.4 µM; CC50 at 24 h ([2]; 24 h, read-out: CC50): > 5 µM
CCN(CC)C1CC(OC2CC(O)(C(=O)CO)Cc3c(O)c4c(c(O)c32)C(=O)c2c(OC)cccc2C4=O)OC(C)C1O (stereo not shown) [Compound 1n]		IC50 [1, 3]: 29.4 µM; CC50 ([2]; 24 h, read-out: CC50): 0.512 µM
NC(CS)C(=O)NCCNc1ccc(NCCNC(=O)C(N)CS)c2c1C(=O)c1c(O)ccc(O)c1C2=O (stereo not shown) [Compound 2f]		IC50 [1, 3]: 6.4 µM; CC50 at 24 h ([2]; 24 h, read-out: CC50): 3.48 µM
COc1cc2ccc3c(c2cc1OC)N(C)C(OC)c1cc2c(cc1-3)OCO2 (stereo not shown) [Compound 3m]		IC50 [1, 3]: > 100 µM; CC50 ([2]; 24 h, read-out: CC50): > 5 µM
Clc1ccc2nc3ccccc3cc2c1 [Compound 2n]		IC50 [1, 3]: > 100 µM; CC50 at 24 h ([2]; 24 h, read-out: CC50): > 5 µM
CCCCCCCCCCCCCCCCCC(=O)OCC(=O)OCC(=O)C1(O)Cc2c(O)c3c(c(O)c2C(OC2CC(N)C(O)C(C)O2)C1)C(=O)c1c(OC)cccc1C3=O (stereo not shown) [Compound 1m]		IC50 [1, 3]: 20.6 µM; CC50 at 24 h ([2]; 24 h, read-out: CC50): > 5 µM
CC(=O)[C@]1(O)Cc2c(O)c3c(c(O)c2[C@@H](O[C@H]2C[C@H](N)[C@H](O)[C@H](C)O2)C1)C(=O)c1c(O)cccc1C3=O [Compound 1d]		CC50 [2]: 0.04 µM
Cc1c(N)nc([C@H](CC(N)=O)NC[C@H](N)C(N)=O)nc1C(=O)N[C@H](C(=O)N[C@H](C)[C@@H](O)[C@H](C)C(=O)N[C@H](C(=O)NCCc1nc(-c2nc(C(=O)NCCCN[C@@H](C)c3ccccc3)cs2)cs1)[C@@H](C)O)[C@@H](O[C@@H]1O[C@@H](CO)[C@@H](O)[C@H](O)[C@@H]1O[C@H]1O[C@H](CO)[C@@H](O)[C@H](OC(N)=O)[C@@H]1O)c1cnc[nH]1 [NSC276382]	37.70	
CN1CCc2cc3c(cc2[C@H]1[C@@H]1OC(=O)c2c1ccc1c2OCO1)OCO3 [NSC32192]	122.62	
CC(CCC/C=C/CCCN(C)C(=N)N)CC(C)C1OC(=O)C(C)C(O)/C=C/C(C)C(O)C(C)C(O)C(C)C(O)CCCC(O)CC2(O)OC(CC(OC(=O)CC(=O)O)CC(O)CC(O)C(C)C(O)/C=C/C=C/C1C)CC(O)C2O (stereo not shown) [NSC107041]	57.24	
COC(=O)c1nc(-c2ccc3c(n2)C(=O)C(N)=C(OC)C3=O)c(N)c(-c2ccc(OC)c(OC)c2O)c1C [NSC45384]	82.84	
Cc1c2ccncc2c(C)c2c1[nH]c1ccccc12 [NSC71795]	107.18	
COc1cc2c(cc1OC)C(=O)Cc1ccc3c(c1CN(C)CC2)OCO3 [NSC32984]	91.01	
C=C1C(=O)C2=CC1CCC(=O)C1(C)CCC(OC(C)=O)C(C)(C)C1CC2O (stereo not shown) [NSC302979]	105.64	
C=C1C(=O)C23C(O)C1CCC2C12CCCC(C)(COC(C)=O)C1C(O)C3(O)OC2 (stereo not shown) [NSC642099]	95.31	
COc1ccc(CC2=NCCc3cc(OC)c(OC)cc32)cc1OC.O=C(O)C(=O)O [NSC35550]	110.36	
COc1c(O)ccc2c1-c1c3c(cc4c1[C@H](C2)N(C)CC4)OCO3 [NSC785181]		IN-GCN2 interaction (%) ([1]; listed as 785181): 54.07%
CC(C)c1ccc2c(c1)CC[C@H]1[C@](C)(C(=O)O)CCC[C@]21C [NSC2952]	107.26	
c1ccc2c(c1)cc1c3c(cc4c(c32)OCO4)CCN1 [NSC785156]	39.07	
COc1ccc2c(c1OC)-c1cccc3c1[C@@H](C2)N(C)CC3 [NSC785153]	61.13	
C=C1C(=O)OC2CC1C(OC(C)=O)C/C(C)=C/CC/C(C)=C\CCC2(C)O (stereo not shown) [NSC46728]		IN-GCN2 interaction (%) ([1]; listed as 46728): 93.27%
CC1(C)O[C@H]2CC(=O)OC[C@]23[C@H]2CC[C@@]4(C)[C@H](c5ccoc5)OC(=O)[C@H]5O[C@]54[C@]2(C)C(=O)C[C@@H]13 [NSC36508]	112.07	
CC1=CC(=O)C2=C(C)CCC3C(C)C(=O)OC3C12 (stereo not shown) [NSC156236]	75.72	
COc1c(O)ccc2c1-c1c3c(cc4c1[C@H](C2)NCC4)OCO3 [NSC785148]	69.85	

Structure (SMILES)	IN-GCN2 interaction (%) [1] [%]	further results
C=C[C@]1(C)C=C2CC[C@@H]3[C@](C)(CCC[C@@]3(C)C(=O)O)[C@H]2CC1 [NSC6435]	127.66	
CC(=O)O[C@@]1(C)C[C@@H]([C@H](O)CC2CC(=O)NC(=O)C2)C(=O)[C@@H](C)C1 [NSC32743]	79.33	
Br.C=CC1CN2CCC1CC2C(O)c1ccnc2ccc(OC)cc12 (stereo not shown) [NSC12865]	97.92	
CC(=O)O[C@@H]1C[C@H]2O[C@@H]3C=C(C)CC[C@]3(C)[C@]1(C)[C@]21CO1 [NSC267023]		effect on IN-GCN2 interaction in dose-response, in words [1]: inactive
C[N+]1([O-])[C@@H]2CC[C@H]1CC(OC(=O)C(CO)c1ccccc1)C2 (stereo partly shown) [NSC72861]	92.58	
C=C1C(=O)O[C@H]2C[C@@]3(C)O[C@@H]3CC/C(C)=C/[C@@H](OC(C)=O)[C@H]12 [NSC22070]	135.82	
CCOC(=O)CCCCCCCCCCCCC1C=CCC1 (stereo not shown) [NSC38010]	104.59	
CC1=C(O)C(=O)C(C2=C(O)C(=O)C(C)=C(O)C2=O)=C(O)C1=O [NSC88466]	52.93	
CC1(C)C(=O)N2c3ccccc3C3(CC(N4C(=O)c5ccccc5C4=O)C(=O)O3)C2N1C(=O)OCc1ccccc1 (stereo not shown) [NSC382796]	53.34	
COc1cc2c3c(c1O)Oc1ccc(cc1)C[C@@H]1c4c(cc(OC)c(OC)c4Oc4ccc(cc4)C[C@@H]3N(C)CC2)CCN1C [NSC785173]	45.72	
CC(=O)C1CCCC(=O)/C=C/C(=O)O1 (stereo not shown) [NSC180515]	108.07	
COc1cc2c(cc1O)C[C@H]1c3c(cc(OC)c(OC)c3-2)CCN1C [NSC785189]	31.39	
COc1cc2c(cc1OC)C13CCN4CC5CCOC6CC(=O)N2C1C6C5CC43 (stereo not shown) [NSC72917]	90.85	
O=C1C=C[C@H](O)[C@@]2(CO)O[C@@H]12 [NSC266032]	108.08	
CC[C@H](C)[C@@H]([C@@H](CC(=O)N1CCC[C@H]1[C@H](OC)[C@@H](C)C(=O)N[C@@H](Cc1ccccc1)c1nccs1)OC)N(C)C(=O)[C@@H](NC(=O)[C@H](C(C)C)N(C)C)C(C)C [NSC376128]	96.15	
CC(C)[C@]12CC(=O)[C@@H](C)[C@H]1C2 [NSC67392]	80.58	
Nc1ncnc2c1ncn2[C@@H]1O[C@H](COP(=O)(O)O)[C@@H](O)[C@H]1O [NSC20264]	82.61	
COC(=O)C1=COC(C)C2CN3CCc4c([nH]c5cc(OC)c(OC)cc45)C3CC12.O=C(O)CC(O)(CC(=O)O)C(=O)O (stereo not shown) [NSC72715]	63.54	
COc1c2c(c3c(c1CCC(=O)O)OC(C)(C)C=C3)OC(C)(C)C=C2 [NSC83436]	100.62	
COC1=CC(=O)C(C)=CC1=O [NSC3071]	99.07	
CO[C@@H]1/C=C/O[C@@]2(C)Oc3c(C)c(O)c4c(c3C2=O)C(=N[C@@H]2CC[C@@H](O)O[C@H]2C)C=C(NC(=O)/C(C)=C\C(=O)[C@@H]2C[C@@H]2[C@H](O)[C@@H](C)[C@@H](O)[C@@H](C)[C@H](OC(C)=O)[C@@H]1C)C4=O [NSC177383]	103.89	
COc1cc2cc(c1Cl)N(C)C(=O)C[C@H](OC(=O)[C@H](C)N(C)C(C)=O)[C@]1(C)O[C@H]1[C@H](C)[C@@H]1C[C@@](O)(NC(=O)O1)[C@H](OC)/C=C/C=C(\C)C2 [NSC153858]	76.02	
CCCCCc1cc(O)cc2c1Oc1cc(O)cc(C(=O)CCCC)c1C(=O)O2 [NSC31867]	101.08	
COc1cc2c(cc1OC)[C@@H](Cc1ccc(O)cc1)N(C)CC2 [NSC785172]	91.61	
COc1c(OC)c2c3c(nccc3c1OC)C(=O)c1cc(O)ccc1-2 [NSC785143]	30.28	
O=C1C[C@@H]2OCC=C3CN4CC[C@]56c7ccccc7N1[C@H]5[C@H]2[C@H]3C[C@]46O [NSC99792]	109.08	
COC1C(=O)CCC2(CO2)C1(O)C1(C)OC1CC=C(C)C (stereo not shown) [NSC141538]	103.23	

Reference: publication PMC12390684 (Viruses, 2025)
